Data taken from patent publication US20030216334A1, “Methods for inhibiting/treating hiv infections and aids related symptoms” (priority 2003, published 2003).
Values after ≈ are worked out from the molar mass of the structure shown.

Key:
[1] = Viral cytopathogenicity, tetrazolium-based colorimetric assay, NL4-3
Description: (§1) Effect on Drug-Resistant Mutants. […] Viral cytopathogencity was determined by Serquest Inc., a Division of Southern Research Institute, Gaithersburg Md. using the tetrazolium-based calorimetric assay, and the data were analyzed using a program developed by the Southern Research Institute. A number of viruses were used in these studies, which include some that are resistant to both the NNRTIs and NRTIs.

[2] = tested on: NL4-3 (wild type); test: as above; conditions: Human immunodeficiency virus 1, NL43
Description: as §1

[3] = in vitro
Description: as §1

[4] = tested on: 4XAZT; test: microbe, parasite or virus in culture; conditions: Human immunodeficiency virus 1
Description: as §1

[5] = tested on: HIV IIIB (wild type); test: Viral cytopathogenicity, tetrazolium-based colorimetric assay, IIIB; type: cell-based
Description: as §1

[6] = tested on: DPS-R (Y181C); test: microbe, parasite or virus in culture; type: cell-based, HIV; conditions: Human immunodeficiency virus 1
Description: as §1

[7] = tested on: K103N; test: microbe, parasite or virus in culture; type: cell-based, HIV; conditions: Human immunodeficiency virus 1, virus K103N
Description: as §1

[8] = tested on: L100I; test: microbe, parasite or virus in culture; type: cell-based, HIV; conditions: Human immunodeficiency virus 1, virus L100I
Description: as §1

[9] = tested on: Y181C; test: microbe, parasite or virus in culture; type: cell-based, HIV; conditions: Human immunodeficiency virus 1
Description: as §1

[10] = tested on: HIV-1 attachment and entry into target cells; test: microbe, parasite or virus in culture
Excerpt: (§2) 2) Inhibition of HIV-1 attachment and entry into target cells.

[11] = tested on: HeLa CD4 LTR β-gal and HL2/3 cells; test: Cell-to-cell fusion assay in the absence of virus
Excerpt: as §2

[12] = biological target: gp120 binding to CD4 (UniProt P01730+P04578); test: gp120/CD4 binding, cell-associated viral p24 antigen read-out
Excerpt: as §2

[13] = Human immunodeficiency virus 1, IIIB

Compound | CC50 [1] [nM] | IC50 [2] [nM] | CC50 [3] [nM] | IC50 [4] [nM] | IC50 [5, 13] [nM] | IC50 [6] [nM] | IC50 [7] [nM] | IC50 [8] [nM] | IC50 [9] [nM] | IC50 ([5]; virus IIIB) [nM] | TC50 ([10]; Attachment) [µg/mL] | IC50 ([10]; Human immunodeficiency virus 1, HeLa) [µg/mL] | IC50 [11] [µg/mL] | TC50 ([11]; Fusion) [µg/mL] | TI ([12]; gp120/CD4 Binding) | CC50 ([12]; human, HIV-1 infected HeLa CD4 LTR β-gal cells) [µg/mL]
Cc1ccnc2c1NC(=O)c1cccnc1N2C1CC1 [Nevirapine, nevirapine] | 10000 | 60 | 1000 | 50 | 30 | ≥ 10000 | 3200 | 150 | 1030 | – | – | – | – | – | – | –
Cc1cn([C@H]2C[C@H](N=[N+]=[N-])[C@@H](CO)O2)c(=O)[nH]c1=O [AZT, zidovudine] | 1000 | 60 | – | ≥ 1000 | 3 | 20 | – | 3 | 10 | 3.2 | – | – | – | – | – | –
COc1cc(-c2ccc(/N=N/c3ccc4c(S(=O)(=O)O)cc(S(=O)(=O)O)c(N)c4c3O)c(OC)c2)ccc1/N=N/c1ccc2c(S(=O)(=O)O)cc(S(=O)(=O)O)c(N)c2c1O [CSB, Chicago Sky Blue] | – | – | – | – | – | – | – | – | – | – | >10 | 1.19 (≈ 1.32 µM) | 0.67 (≈ 0.74 µM) | >10 | 8.3 | > 10
